The subject of series [1] is CC[C@H](C)[C@H](N)C(=O)N[C@@H](Cc1c[nH]c2ccccc12)C(=O)NCC(=O)N[C@H](C(=O)NCC(=O)N[C@@H](CS)C(=O)N[C@@H](CC(N)=O)C(=O)N1CCC[C@H]1C(=O)N[C@@H](Cc1c[nH]c2ccccc12)C(=O)N[C@H](C(=O)N[C@@H](C)C(=O)N[C@@H](CCC(=O)O)C(=O)N[C@@H](Cc1c[nH]cn1)C(=O)N[C@H](C(=O)N[C@@H](CC(=O)O)C(=O)N[C@@H](CCC(N)=O)C(=O)N[C@H](C(=O)N[C@@H](CC(C)C)C(=O)N[C@@H](C)C(=O)N[C@@H](CO)C(=O)NCC(=O)N[C@@H](CC(N)=O)C(=O)N[C@@H](CC(=O)O)C(=O)N[C@H](C(=O)N[C@@H](CS)C(=O)O)[C@@H](C)CC)[C@@H](C)O)C(C)C)[C@@H](C)O)[C@@H](C)CC. Briefly: GmPOPB kinetic assays (LC-MS). The class given is biochemical, Galerina marginata. The settings on record: other: room temperature; pH 8.0. The protocol:
Comparison between distinct GmPOPB substrates was performed in 50 mM Tris pH 8.0, 50 mM NaCl, 10 mM DTT with varying concentrations of substrates at room temperature. All reactions were performed in duplicates. Reactions were started by adding GmPOPB (50 nM for GmAMA1_C6S, 1 μM for the 13mer and 14mer, and 20 nM for other substrates) to the assay mixture containing buffer and peptide. Reactions were quenched at several time points by adding 50 μL reaction mixture to 20 μL 6% TFA. Reactants were separated from products for quantification by injecting 50 μL of each quenched time point mix onto a ZORBAX SB-C18, 5 μm, 9.4×50 mm (Agilent) column connected to an Agilent LC-MS (G6130B Single Quad, Agilent Technologies). Reactants were separated from products using a gradient from H2O containing 0.1% TFA or 0.1% formic acid and 5% acetonitrile to 50% acetonitrile, at 1.5 ml/min for 8 min. Peaks with ultra violet (UV) absorbance at 220 and 280 nm were integrated, the area of peaks corresponding to reactant and products was used to calculate the percentage of product formed after a correction for differences in the extinction coefficient of each peptide was applied (ε280-25mer=11,000M-1 cm-1, ε220-25mer=46,000M-1 cm-1, ε280-cyclic=5500M-1 cm-1, ε220-cyclic=34,000M-1 cm-1, and ε280-tail=5500M-1 cm-1). The sum of product+substrate was assumed equal to the total initial amount of substrate, product converted from % to concentration. This value was divided by concentration of enzyme present to yield v/Et (min-1). When enzyme mutants and peptides containing alanine in the core region were tested for activity, higher concentrations 5 μM enzyme and 100 μM substrate were incubated for 1 and 18 h at room temperature. For progress curves with the 35mer substrate, measurements were triplicate and quantification relied on ion counts from mass spectrometry. […] Authentic macrocyclic peptide was quantified by UV absorbance. Data showing products formed after 1 and 16 h with truncated peptides were performed twice. […] Kinetic data were fitted to a Michaelis-Menten equation using GraphPad Prism, and values reported are average and standard error of the mean.

The test system of series [2] is PCY1. Briefly: PCY1 macrocyclisation of hybrid precursor peptides containing non-amino acids (Maldi). The class given is biochemical, Saponaria vaccaria. The settings on record: 16 h incubation with PCY1, Maldi spectrum. The protocol: All kinetic measurements (activity tests, progress curves and initial-rate experiments) were performed as discontinuous assays analyzing samples via LC/MS or MALDI (10-mer activity test). Reactions were performed in 20 mM Tris pH 8.5, 100 mM NaCl, 5 mM DTT (for progress curves 0.2 mg mL-1 BSA was included).17 Reactions were performed at 30° C. and at various time points 50 μL samples were quenched with 20 μL of 6% (v/v) TFA. Samples (50 μL) were loaded onto a ZORBAX SBC18, 5 μm, 9.4 mm×50 mm (Agilent) column connected to an Agilent LC-MS instrument (G6130B Single Quad, Agilent Technologies). Reactants were separated from products using a gradient from A (H2O with 0.1% formic acid) to 80% B (acetonitrile), at a rate of 1.5 mL/min for 8.75 min. For data analysis, ion count peaks and UV absorbance peaks were integrated using Agilent ChemStation software. For data analysis involving quantitative mass spec integration, calibration curves with macrocyclic peptide product were performed in triplicate in order to linearly correlate ion counts to cyclic product concentration. Data fitting and plotting was performed with Prism 6. […]

Series [3] concerns PCY1. Put plainly: LC/MS time course of macrocyclisation by PCY1. It is filed as biochemical, Saponaria vaccaria. The following applies: 200 μM substrate, 3.6 μM PCY1. As to the method:
(§1) All kinetic measurements (activity tests, progress curves and initial-rate experiments) were performed as discontinuous assays analyzing samples via LC/MS or MALDI (10-mer activity test). Reactions were performed in 20 mM Tris pH 8.5, 100 mM NaCl, 5 mM DTT (for progress curves 0.2 mg mL-1 BSA was included).17 Reactions were performed at 30° C. and at various time points 50 μL samples were quenched with 20 μL of 6% (v/v) TFA. Samples (50 μL) were loaded onto a ZORBAX SBC18, 5 μm, 9.4 mm×50 mm (Agilent) column connected to an Agilent LC-MS instrument (G6130B Single Quad, Agilent Technologies). Reactants were separated from products using a gradient from A (H2O with 0.1% formic acid) to 80% B (acetonitrile), at a rate of 1.5 mL/min for 8.75 min. For data analysis, ion count peaks and UV absorbance peaks were integrated using Agilent ChemStation software. For data analysis involving quantitative mass spec integration, calibration curves with macrocyclic peptide product were performed in triplicate in order to linearly correlate ion counts to cyclic product concentration. Data fitting and plotting was performed with Prism 6.
PCY1 extracted from S. vaccaria seeds has been previously described to have a turnover number of ˜1 h^−1 for PresegA1.^17 The enzyme produced heterologously in E. coli was evaluated by LC/MS-based time course experiments macrocyclizing 200 μM of PresegA1, PresegB1 or PresegF1 with 3.6 μM PCY1. […] We chose to investigate the slowest and fastest substrate by steady-state kinetics using an LC/MS assay and UV280 nm quantification. […] Under the ITC conditions, the measured kcat (0.14±0.01 s^−1) was a factor of three lower than the LC/MS derived values. […] Therefore, we resorted to an LC/MS assay followed by quantification using mass ion counts, relying on a calibration curve employing the macrocyclic peptide product as a standard (FIG. 2b).

The target in the next series is PCY1:S562A. Briefly: ITC equilibrium binding to PCY1:S562A. Also noted: species or system Saponaria vaccaria. The following applies: ITC, 25° C. As to the method:
(§2) All PCY1 samples were buffer-exchanged or solubilized into buffer F and further diluted in the same batch of buffer F, in order to minimize buffer mismatches. ITC binding experiments were performed using a cell solution containing PCY1:S562A and a titrant solution with each peptide used. […] The measurements were performed at a stir speed of 750 rpm at 25° C. using a reference power of 10 μcal/s, except for A1-NH2 (5 μcal/s). A buffer titration control in which peptide was titrated into buffer was performed for each experiment. Data processing, fitting to a non-linear one-site binding model, and data plotting was performed using MicroCal PEAQ ITC analysis software (Malvern). […] The measurement was performed in buffer at 30° C., at 750 rpm using a reference power of 5 μcal/s.

Series [4] has as its system PCY1. Briefly: Single injection kinetic ITC with PCY1. It is filed as biochemical, Saponaria vaccaria. The following applies: 30° C. As to the method: as §2, with “used. All peptides were used at 200 μM except for presegetalin A1-NH2 (700 μM).” for “used.”
Series [5] relates to PCY1. Briefly: LC/MS steady-state kinetics of macrocyclisation by PCY1. It is filed as biochemical, Saponaria vaccaria. The protocol: as §1
PCY1 extracted from S. vaccaria seeds has been previously described to have a turnover number of ˜1 h^−1 for PresegA1.^17 The enzyme produced heterologously in E. coli was evaluated by LC/MS-based time course experiments macrocyclizing 200 μM of PresegA1, PresegB1 or PresegF1 with 3.6 μM PCY1. These substrates were chosen as they produce 6, 5 and 9 residue macrocycles, respectively, show variability in the length of the C-terminal tail sequence, and have a different C-terminal core residue (proline in PresegF1, alanine in the other two) (FIG. 1b). PresegB1 was completely macrocyclized in ˜30 min, PresegA1 in ˜50 min and PresegF1 in >3 h (FIG. 2a). We chose to investigate the slowest and fastest substrate by steady-state kinetics using an LC/MS assay and UV280 nm quantification. […] Under the ITC conditions, the measured kcat (0.14±0.01 s^−1) was a factor of three lower than the LC/MS derived values. […] Therefore, we resorted to an LC/MS assay followed by quantification using mass ion counts, relying on a calibration curve employing the macrocyclic peptide product as a standard (FIG. 2b).

For series [6], the system named is T1, 13mer truncated substrate.
T1 sequence: IWGIGCNPWTAEH

A further series relates to T2, 25mer substrate.
T2 sequence: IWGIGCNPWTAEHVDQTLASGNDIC

The subject of series [7] is T3, 14mer truncated substrate.
T3 sequence: IWGIGCNPWTAEHV

The target in a further series is T4, presegetalin B1.
T4 chain: GVAWAFQAKDVENASAPV

Turning to GmPOPB (Galerina marginata CBS 339.88), in series [1], the Km (in general, the substrate concentration at which the rate is half of its maximum) came to 50 µM; the kcat (in general, the number of substrate molecules converted per active site and unit of time at saturation) turned out to be 0.3 s⁻¹.

Take VGAG-8Aoc-FPIQT-NH2: the “conversion overnight (in words)” value in the series with PCY1 [2] is reported as “almost entirely converted”.

“PresegB1: native linear PCY1 substrate presegetalin B1; produces a 5 residue macrocycle (GVAWAFQAKDVENASAPV)”: the “time until completely macrocyclized” value with PCY1 [3] is reported as roughly 30 min. On PCY1:S562A, the Kd (in general, a measure of binding affinity in units of concentration) is roughly 200 nM. The “kcat (table head prints kout)” value in the series on PCY1 [4] worked out at 0.14 ± 0.01 s⁻¹; in the series on PCY1 [5] (LC/MS (UV280 nm), 30° C.) it was 0.37 ± 0.02 s⁻¹. For the same molecule, the Km worked out at 0.25 ± 0.01 µM in the series with PCY1 [4] (read-out: Km (table head prints Kin)) and 0.45 ± 0.17 µM in the series on PCY1 [5] (LC/MS (UV280 nm), 30° C., read-out: Km (table head prints Kin)). In addition, in the series with PCY1 [5] (steady state kinetics, FIG. 7), the “processing by PCY1 (in words)” value was “rapidly processed”.

“GmPOPB (Galerina marginata POPB), wild type”: the “Km, Michaelis-Menten kinetics of macrocyclisation” value in series [6] is “the 13mer substrate has a Km (25 µM)”; in the series with 25mer substrate, “the 25mer substrate (50 µM)”; in series [7] it was “the 14mer possesses higher Km (380 µM)”.

With FSA-8Aoc-SKPIQT-NH2, the conversion rate overnight result in the series with PCY1 [2] is “around 50%”.

B1: PCY1 (Saponaria vaccaria), wild type (protein)
chain: MATSGFSKPLHYPPVRRDETVVDDYFGVKVADPYRWLEDPNSEETKEFVDNQEKLANSVLEECELIDKFKQKIIDFVNFPRCGVPFRRANKYFHFYNSGLQAQNVFQMQDDLDGKPEVLYDPNLREGGRSGLSLYSVSEDAKYFAFGIHSGLTEWVTIKILKTEDRSYLPDTLEWVKFSPAIWTHDNKGFFYCPYPPLKEGEDHMTRSAVNQEARYHFLGTDQSEDILLWRDLENPAHHLKCQITDDGKYFLLYILDGCDDANKVYCLDLTKLPNGLESFRGREDSAPFMKLIDSFDASYTAIANDGSVFTFQTNKDAPRKKLVRVDLNNPSVWTDLVPESKKDLLESAHAVNENQLILRYLSDVKHVLEIRDLESGALQHRLPIDIGSVDGITARRRDSVVFFKFTSILTPGIVYQCDLKNDPTQLKIFRESVVPDFDRSEFEVKQVFVPSKDGTKIPIFIAARKGISLDGSHPCEMHGYGGFGINMMPTFSASRIVFLKHLGGVFCLANIRGGGEYGEEWHKAGFRDKKQNVFDDFISAAEYLISSGYTKARRVAIEGGSNGGLLVAACINQRPDLFGCAEANCGVMDMLRFHKFTLGYLWTGDYGCSDKEEEFKWLIKYSPIHNVRRPWEQPGNEETQYPATMILTADHDDRVVPLHSFKLLATMQHVLCTSLEDSPQKNPIIARIQRKAAHYGRATMTQIAEVADRYGFMAKALEAPWID
B1: in the series with presegetalin B1, the Km (column head printed as 'Kin (µM)'), single injection kinetic ITC was determined as 0.25 µM and the Km (column head printed as 'Kin (µM)'), steady-state kinetics, LC/MS (UV280 nM) amounted to 0.45 µM.

Values taken from US20200291444A1, “Macrocyclisation Tags” (Oxford University Innovation LTD, priority 2017, published 2020).
